The record followed here is patent US11702422B2, “Imidazopyridazines as modulators of IL-17” (Janssen Pharmaceutica NV, priority 2020, dated 2023).

pIC50: −log10 of the molar value.

Assay [1] concerns the target IL-17A(FLAG-Tagged): IL-17RA(His-Tagged) (Homo sapiens, UniProt Q16552, K93Q). Kind of assay: IL-17A(FLAG-Tagged): IL-17RA(His-Tagged) Binding Disruption Eu-HTRF Assay. The conditions noted are these: IL-17A/IL-17RA binding disruption, simple average if tested more than once. From the text: IL-17A(FLAG-Tagged): IL-17RA(His-Tagged) Binding Disruption Eu-HTRF Assay
An antibody directed against the FLAG tag of IL-17A (SEQ ID NO:1) is labeled with the HTRF donor chromophore (Europium-cryptate). IL-17A is present as a dimer that is “locked into” this quaternary structure due to the formation of loop-spanning […] disulfide bridges. The construct of IL-17RA used in the assay excludes the […] portion of the receptor and is fused to a C-terminal 10×His tag (SEQ ID NO:2). An antibody directed against the His tag of the IL-17RA chimera is labeled with the HTRF acceptor chromophore (“D2”). The fluorescence-resonance energy transfer (FRET) depends on the vicinity of the donor chromophore to the acceptor, and interruption of the binding between the IL-17A and IL-17RA causes the reduction/loss of FRET. Therefore, this assay allows to evaluate the compound effect on the binding IL-17A and IL-17RA by monitoring the fluorescence intensity of donor vs acceptor. The assay is run as described below.
40 nl of 2-fold serial diluted compound solution for total 22 dilution points is added into each well of a 1536-well, white, low-volume, non-binding plate (Greiner #782904), then 2 μl of FLAG tagged IL-17A at 2× final concentration (2.5 nM) in solution of PBS+0.01% Triton-X100 is added to each well. The assay plate is briefly centrifuged then incubated for 1 h at rt. A mixed solution is prepared containing 2×5 nM 10HIS×IL-17RA, 2×2.5 nM Eu-anti-FLAG (CISBIO), 2×5 nM D2-anti-HIS (CISBIO) in PBS+0.01% Triton-X100+200 mM Potassium Fluoride (Sigma 60238) and 2 μl of mix is added to each well of the assay plate. The plate is briefly centrifuged then incubated for 2 h at rt. The HTRF intensities at the wavelength of donor (620 nm) and acceptor (665 nm) are measured using BMG Pherastar. The ratio between intensities at two wavelengths is calculated and plotted against the compound concentration and the data is fitted to a one-site competition model to yield IC50 of the compound.
In general terms: Time-resolved FRET reads energy transfer from a long-lived donor to a nearby acceptor.

Assay [2] relates to IL-17A-induced G-CSF production in human normal keratinocyte (NHK). Kind of assay: NHK Assay: IL-17A-induced G-CSF production in human normal keratinocytes. The assay is classed as cell-based. Particulars: Homo sapiens, Keratinocyte, 24 h, adult normal human keratinocytes, IL-17A 5 ng/mL, simple average if tested more than once. As for the experimental part:
IL-17A acts directly on keratinocytes through binding to dimeric receptor IL-17RA/RC and drives the production of a number of inflammatory mediators known to be elevated in psoriasis lesional tissue. IL-17A small molecule inhibitors that block the IL-17A to interact with IL-17R would inhibit the IL-17A signaling in its targeted cells such as keratinocytes. The compound functional activity is evaluated for its impact on IL-17A-induced G-CSF production in human normal keratinocyte (NHK).
Adult normal human keratinocytes are cultured in keratinocyte growth medium (Lonza) in a flask till reaching ˜ 90% confluence, then cells are transferred to a 384-well plate at density of 3000-4000 cell/well. Recombinant human IL-17A (Gibco PHC9174) is pre-incubated with titrated compound or DMSO for 1 h at rt then added to the cell culture plate. The final concentration of IL-17A is 5 ng/mL and DMSO is 0.2%, in the culture containing 5% FBS. Cells are cultured/treated for 24 h at 37° C. Supernatants are collected and G-CSF production is measured through HTRF technology using Human G-CSF Kit (CisBio). G-CSF concentration was extrapolated from the standard curve and IC50 is determined using GraphPad Prism. Cell viability is also evaluated using CellTiter-Glo kit (Promega) and effect of compound on cell viability is compared to DMSO control.

UniProt Q16552, sequence (Q16552 with tags, fused parts or gaps K93Q): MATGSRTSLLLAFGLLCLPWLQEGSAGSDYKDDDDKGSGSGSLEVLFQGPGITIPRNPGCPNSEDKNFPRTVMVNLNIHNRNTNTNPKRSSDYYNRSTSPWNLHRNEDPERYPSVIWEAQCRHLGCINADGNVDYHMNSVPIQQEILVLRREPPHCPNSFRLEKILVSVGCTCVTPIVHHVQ

Usually pIC50 stands for the IC50 on a negative log10 scale, so that one unit is a factor of ten. Higher therefore signals a low IC50. As for `Cc1nonc1C(=O)N[C@H](c1cn2ncc([C@H](NC(=O)C[C@H]3CC3(F)F)C3CC3)cc2n1)C1CCC(F)(F)CC1` (relative stereo) [Example 255], the pIC50 is 6.77 in assay [1] and 6.22 in assay [2].
For `Cc1nonc1C(=O)N[C@H](c1cn2ncc([C@H](NC(=O)CC3CC3(F)F)C3CC3)cc2n1)C1CCC(F)(F)CC1` (relative stereo) [Example 256] the same measures were 7.25 and 6.60.
With `Cc1nonc1C(=O)N[C@H](c1cn2ncc([C@H](NC(=O)[C@H]3CC[C@@H]3F)C3CC3)cc2n1)C1CCC(F)(F)CC1` (relative stereo) [Example 334, N—((S)-(7-((R)-Cyclopropyl((1R*,2S*)-2-fluorocyclobutane-1-carboxamido)methyl)imidazo[1,2-b]pyridazin-2-yl)(4,4-difluorocyclohexyl)methyl)-4-methyl-1,2,5-oxadiazole-3-carboxamide], the pIC50 is 5.36 in assay [1] and under 4.70 in assay [2].
The matching figures for `Cc1nonc1C(=O)N[C@H](c1cn2ncc([C@H](NC(=O)[C@@H]3CC[C@H]3F)C3CC3)cc2n1)C1CCC(F)(F)CC1` (relative stereo) [Example 335, N—((S)-(7-((R)-Cyclopropyl((1S*,2R*)-2-fluorocyclobutane-1-carboxamido)methyl)imidazo[1,2-b]pyridazin-2-yl)(4,4-difluorocyclohexyl)methyl)-4-methyl-1,2,5-oxadiazole-3-carboxamide]: 5.12 and under 4.70.
Turning to `Cc1nonc1C(=O)N[C@H](c1cn2ncc([C@H](NC(=O)[C@H]3CC[C@H]3F)C3CC3)cc2n1)C1CCC(F)(F)CC1` (relative stereo) [Example 336, N—((S)-(7-((R)-Cyclopropyl((1R*,2R*)-2-fluorocyclobutane-1-carboxamido)methyl)imidazo[1,2-b]pyridazin-2-yl)(4,4-difluorocyclohexyl)methyl)-4-methyl-1,2,5-oxadiazole-3-carboxamide], the values for the pIC50 in assay [1] and in assay [2] were 5.30 and under 4.70, respectively.
The matching figures for `Cc1nonc1C(=O)N[C@H](c1cn2ncc([C@H](NC(=O)[C@@H]3CC[C@@H]3F)C3CC3)cc2n1)C1CCC(F)(F)CC1` (relative stereo) [Example 337, N—((S)-(7-((R)-Cyclopropyl((1S*,2S*)-2-fluorocyclobutane-1-carboxamido)methyl)imidazo[1,2-b]pyridazin-2-yl)(4,4-difluorocyclohexyl)methyl)-4-methyl-1,2,5-oxadiazole-3-carboxamide]: 5.46 and under 4.70.
Regarding `Cc1nonc1C(=O)N[C@H](c1cn2ncc([C@H](NC(=O)[C@@]34C[C@@H](F)[C@@H]3C4)C3CC3)cc2n1)C1CCC(F)(F)CC1` (relative stereo) [Example 340, N—((S)-(7-((R)-Cyclopropyl((1S*,3R*,4R*)-3-fluorobicyclo[2.1.0]pentane-1-carboxamido)methyl)imidazo[1,2-b]pyridazin-2-yl)(4,4-difluorocyclohexyl)methyl)-4-methyl-1,2,5-oxadiazole-3-carboxamide], the pIC50 was 5.07 in assay [1] and under 4.70 in assay [2].
For `Cc1nonc1C(=O)N[C@H](c1cn2ncc([C@H](NC(=O)[C@@]34C[C@@H]3[C@@H](F)C4)C3CC3)cc2n1)C1CCC(F)(F)CC1` (relative stereo) [Example 341, N—((S)-(7-((R)-Cyclopropyl((1R*,3S*,4S*)-3-fluorobicyclo[2.1.0]pentane-1-carboxamido)methyl)imidazo[1,2-b]pyridazin-2-yl)(4,4-difluorocyclohexyl)methyl)-4-methyl-1,2,5-oxadiazole-3-carboxamide] the same measures were 5.32 and under 4.70.
As to `Cc1nonc1C(=O)N[C@H](c1cn2ncc([C@H](NC(=O)[C@H](F)[C@@H](C)C(F)(F)F)C3CC3)cc2n1)C1CCC(F)(F)CC1` (relative stereo) [Example 352, N—((S)-(7-((R)-Cyclopropyl((2R*,3R*)-2,4,4,4-tetrafluoro-3-methylbutanamido)methyl)imidazo[1,2-b]pyridazin-2-yl)(4,4-difluorocyclohexyl)methyl)-4-methyl-1,2,5-oxadiazole-3-carboxamide], the results for the pIC50 in assay [1] and in assay [2] were 6.92 and 6.72, respectively.
As for `Cc1nonc1C(=O)N[C@H](c1cn2ncc([C@H](NC(=O)[C@H](F)[C@H](C)C(F)(F)F)C3CC3)cc2n1)C1CCC(F)(F)CC1` (relative stereo) [Example 353, N—((S)-(7-((R)-Cyclopropyl((2R*,3S*)-2,4,4,4-tetrafluoro-3-methylbutanamido)methyl)imidazo[1,2-b]pyridazin-2-yl)(4,4-difluorocyclohexyl)methyl)-4-methyl-1,2,5-oxadiazole-3-carboxamide], the pIC50 was 6.20 in assay [1] and 6.01 in assay [2].
For `Cc1nonc1C(=O)N[C@H](c1cn2ncc([C@H](NC(=O)[C@@H](F)[C@@H](C)C(F)(F)F)C3CC3)cc2n1)C1CCC(F)(F)CC1` (relative stereo) [Example 354, N—((S)-(7-((R)-Cyclopropyl((2S*,3R*)-2,4,4,4-tetrafluoro-3-methylbutanamido)methyl)imidazo[1,2-b]pyridazin-2-yl)(4,4-difluorocyclohexyl)methyl)-4-methyl-1,2,5-oxadiazole-3-carboxamide] the same measures were 6.14 and 5.57.
As for `Cc1nonc1C(=O)N[C@H](c1cn2ncc([C@H](NC(=O)[C@@H]3CNC[C@H]3C(F)(F)F)C3CC3)cc2n1)C1CCC(F)(F)CC1` (relative stereo) [Example 356, N—((S)-(7-((R)-Cyclopropyl((trans-3S*,4S*)-4-(trifluoromethyl)pyrrolidine-3-carboxamido)methyl)imidazo[1,2-b]pyridazin-2-yl)(4,4-difluorocyclohexyl)methyl)-4-methyl-1,2,5-oxadiazole-3-carboxamide], the pIC50 in assay [1] is 6.28; in assay [2], 5.11.
As to `O=C(CCC(F)(F)F)N[C@@H](c1cnn2cc([C@@H](NC(=O)[C@@H]3C[C@@H]3C(F)F)C3CCC(F)(F)CC3)nc2c1)C1CC1` (relative stereo) [Example 358, (1R*,2S*)—N—((S)-(7-((R*)-Cyclopropyl(4,4,4-trifluorobutanamido)methyl)imidazo[1,2-b]pyridazin-2-yl)(4,4-difluorocyclohexyl)methyl)-2-(difluoromethyl)cyclopropane-1-carboxamide], the pIC50 is 6.35 in assay [1] and 5.68 in assay [2].
For `O=C(CCC(F)(F)F)N[C@@H](c1cnn2cc([C@@H](NC(=O)[C@H]3C[C@H]3C(F)F)C3CCC(F)(F)CC3)nc2c1)C1CC1` (relative stereo) [Example 359, (1S*,2R*)—N—((S)-(7-((R*)-Cyclopropyl(4,4,4-trifluorobutanamido)methyl)imidazo[1,2-b]pyridazin-2-yl)(4,4-difluorocyclohexyl)methyl)-2-(difluoromethyl)cyclopropane-1-carboxamide] the same measures were 5.96 and 5.00.
The matching figures for `O=C(CCC(F)(F)F)N[C@@H](c1cnn2cc([C@@H](NC(=O)[C@@H]3C[C@H]3CF)C3CCC(F)(F)CC3)nc2c1)C1CC1` (relative stereo) [Example 362, (1R*,2R*)—N—((S)-(7-((R*)-Cyclopropyl(4,4,4-trifluorobutanamido)methyl)imidazo[1,2-b]pyridazin-2-yl)(4,4-difluorocyclohexyl)methyl)-2-(fluoromethyl)cyclopropane-1-carboxamide]: 5.38 and under 4.70.
